Data taken from US9566349B2, “Intestinal peptide targeting ligands” (Rutgers, The State University of New Jersey, priority 2010, dated 2017).
Square brackets hold non-standard residues; d marks the D form. Ends that are not written are not given here. Peptide text beside a SMILES is read from it. Nle = CCCC[C@H](N)C(=O)O

How the values were obtained:
[1] = cited from earlier work
[2] = Solubility and aggregation of peptide compared with SEQ ID NO. 1; type: physicochemical; details: Met and Cys replaced by norleucine and serine
Excerpt: Another example of such an amino acid sequence is TKWPVDN/eSPNVS (SEQ ID. NO. 6). In comparison with SEQ ID. NO. 1, replacement of the oxidation-prone amino acids (methionine and cysteine) with their biosteric counterparts (norleucine and serine respectively) in SEQ ID. NO. […] The peptide ligands of the instant invention also include variants or homologues of SEQ ID NO: 6, which may be at least 75% identical to SEQ ID NO: 6 or which may contain conservative substitutions of corresponding amino acid residues.

[3] = tested on: Caco-2 intestinal epithelial monolayer; assay: Transport of FITC-labeled peptide across Caco-2 intestinal epithelial monolayer; type: cell-based, human; details: Caco-2 monolayers, n=3, p<0.05
Excerpt: FIG. 2. Illustrates that peptide-labeled #12 (SEQ ID NO. 2) and its sequence-scrambled peptide FITC-12C1 were transported across Caco-2 intestinal epithelial monolayer in the presence and absence of chylomicron lipid-forming micelles.
Fluorescently labeled peptides according to SEQ ID NOS. 1 and 3 were synthesized. The peptide according to SEQ ID NO. […] The peptide according to SEQ ID NO. […] Therefore, the peptide according to SEQ ID NO. 2 aggregate may be viewed as a small nanoparticle displaying some peptides according to SEQ ID NO. 2 in correct orientation (i.e., on the surface not buried inside the nanoparticle). Even with this imperfect display, some increase in chylomicron lipid-dependent translocation across Caco-2 monolayers is still noticeable over a scrambled peptide according to SEQ ID NO. 1 (12C1) (FIG. 2). FITC-12 was 4.6-fold more efficiently transported than the sequence-scrambled control (FIG. 2).

Molecule	LogP [1]	further results
CC(C)CN(C[C@@H](O)[C@H](Cc1ccccc1)NC(=O)O[C@H]1CO[C@H]2OCC[C@H]21)S(=O)(=O)c1ccc(N)cc1 [Darunavir]	1.8	
CCCC[C@H](NC(=O)[C@H](CC(=O)O)NC(=O)[C@@H](NC(=O)[C@@H]1CCCN1C(=O)[C@H](Cc1c[nH]c2ccccc12)NC(=O)[C@H](CCCCN)NC(=O)[C@@H](N)[C@@H](C)O)C(C)C)C(=O)N[C@@H](CO)C(=O)N1CCC[C@H]1C(=O)N[C@@H](CC(N)=O)C(=O)N[C@H](C(=O)N[C@@H](CO)C(=O)O)C(C)C [SEQ ID. NO. 6, TKWPVDN/eSPNVS] (H-TKWPVD[Nle]SPNVS-OH; N-terminus and C-terminus assumed)		solubility in comparison with SEQ ID. NO. 1 [2]: better solubility
C[C@@H]1CCO[C@H]2Cn3cc(C(=O)NCc4ccc(F)cc4F)c(=O)c(O)c3C(=O)N12 [Dolutegravir]	1.0	
Cc1cc(C2CCCCC2)n(O)c(=O)c1 [Ciclopirox]	2.2	
FITC-12: fluorescently (FITC) labeled peptide #12 (SEQ ID NO. 2) (QDDVQTWQRQPK; also: FITC label, position not given here)		transport efficiency relative to sequence-scrambled control (12C1) [3]: 4.6 fold
